Data as given in ChEMBL document CHEMBL3886764, “Acetamide derivatives” (2016).

Molecular target: Transient receptor potential cation channel subfamily A member 1 (Homo sapiens, UniProt O75762)
Assay: Dose Response Assay: Compound plates were resuspended with 100 ul of HBSS/20 mM HEPES/0.005% BSA buffer (Compound Buffer): column 1A-H: buffer/DMSO (bk); column 2A-H: AP-18 (control antagonist for CHOK1 TRPA1 cells); column 1I-P: ATP (control for CHOK1 teton cells); column 2 I-P: 2APB (control antagonist for CHOK1/TRPM8 cells). Growth media was removed from the cell plates (20 ul) and 20 ul of the Replacement Buffer was added followed by addition of 25 ul of diluted dye. All three steps were performed using a Plate Washer BioTek 407. The plates were then incubated for 30' at RT. After incubation, both the cell and compound plates were brought to the FLIPR and 20 ul of the diluted compounds/antagonist/bk were transferred to the cell plates by the FLIPR. Plates were then incubated for 30' at room temperature. After 30' incubation, plates were returned to the FLIPR and 20 ul of 4.5× Cinnamaldehyde was added to the cell plates. During the compound addition as well as agonist addition, fluorescence readings were taken simultaneously from all 384 wells of the cell plate every 1.5 seconds. Five readings were taken to establish a stable baseline, then 20 ul of sample was rapidly (30 ul/sec) and simultaneously added to each well of the cell plate. […]

Chain of Transient receptor potential cation channel subfamily A member 1 (O75762 whole entry): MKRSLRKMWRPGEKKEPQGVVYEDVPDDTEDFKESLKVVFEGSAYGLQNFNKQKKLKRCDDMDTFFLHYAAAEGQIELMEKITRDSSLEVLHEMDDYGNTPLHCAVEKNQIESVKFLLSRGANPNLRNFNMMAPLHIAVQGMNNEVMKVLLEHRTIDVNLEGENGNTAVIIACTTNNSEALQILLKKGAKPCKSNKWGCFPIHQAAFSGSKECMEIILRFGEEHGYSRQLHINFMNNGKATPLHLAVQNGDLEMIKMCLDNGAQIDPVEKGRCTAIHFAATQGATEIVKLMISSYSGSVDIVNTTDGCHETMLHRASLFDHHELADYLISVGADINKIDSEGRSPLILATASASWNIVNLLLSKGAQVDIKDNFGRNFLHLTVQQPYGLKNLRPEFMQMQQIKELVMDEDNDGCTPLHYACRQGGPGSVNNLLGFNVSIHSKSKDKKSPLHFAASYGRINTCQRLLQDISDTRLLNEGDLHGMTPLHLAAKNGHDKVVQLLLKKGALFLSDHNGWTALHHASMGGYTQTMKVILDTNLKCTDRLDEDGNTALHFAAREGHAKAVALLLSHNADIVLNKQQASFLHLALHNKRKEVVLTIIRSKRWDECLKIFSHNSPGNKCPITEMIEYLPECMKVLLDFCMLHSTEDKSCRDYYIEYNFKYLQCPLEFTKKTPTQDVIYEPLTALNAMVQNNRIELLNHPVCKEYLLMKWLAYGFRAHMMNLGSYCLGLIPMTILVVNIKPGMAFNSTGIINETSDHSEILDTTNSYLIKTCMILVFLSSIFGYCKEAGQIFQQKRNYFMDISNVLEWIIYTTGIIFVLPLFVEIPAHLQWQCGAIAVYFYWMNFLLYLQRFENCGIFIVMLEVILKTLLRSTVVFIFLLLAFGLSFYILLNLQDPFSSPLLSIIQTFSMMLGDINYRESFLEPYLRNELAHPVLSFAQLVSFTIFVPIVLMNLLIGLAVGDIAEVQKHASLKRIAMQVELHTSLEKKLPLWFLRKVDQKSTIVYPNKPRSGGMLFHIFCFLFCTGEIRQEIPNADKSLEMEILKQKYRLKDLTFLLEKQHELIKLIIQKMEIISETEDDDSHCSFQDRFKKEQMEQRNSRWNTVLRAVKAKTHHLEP

IC50: 1.52 µM
Compound: CN(CC(=O)NCC1CN(c2ccc(C(F)(F)F)cc2)CCO1)S(=O)(=O)c1ccc(F)cc1 (stereo unspecified)
